{"source": "paper PMC7340446", "about": "“Optimization of PTH/PTHrP Hybrid Peptides to Derive a Long‐Acting PTH Analog (LA‐PTH)” (JBMR Plus, 2020)", "assay": "Pharmacokinetics in normal rats, i.v., plasma peptide by ELISA", "type": "in vivo, rat", "details": "i.v. 10 nmol/kg, plasma with protease inhibitors, n = 4 (M‐PTH/PTHrP) or 3 (PTH(1–34))", "method": "For pharmacokinetic studies, plasma samples were prepared in the presence of protease inhibitors (aprotinin, leupeptin, EDTA). Plasma levels of PTH(1–34) were assessed by ELISA assay (Human PTH(1–34) Specific ELISA Kit; Immutopics Inc, San Clemente, CA, USA), and plasma levels of M‐PTH/PTHrP were assessed by ELISA assay (PTH‐RP 1–34 Human Enzyme Immunoassay Kit; Peninsula Laboratories International, San Carlos CA, USA) using M‐PTH/PTHrP peptides as standard solutions.\nFigure 3 Pharmacodynamic and pharmacokinetic profiles of M‐PTH/PTHrP and PTH(1–34) in rats. (A) Effects of M‐PTH/PTHrP and PTH(1–34) on blood ionized Ca in TPTX rats by i.v. injection. M‐PTH/PTHrP and PTH(1–34) were injected intravenously in TPTX rats at the indicated doses, and blood samples were collected from the tail vein measured for ionized Ca; data are means ± SE; n = 5 or 3 (PTH(1–34)). *p < 0.05, **p < 0.01, ***p < 0.005 M‐PTH/PTHrP or PTH(1–34) versus TPTX‐vehicle. […] M‐PTH/PTHrP and PTH(1–34) each at a dose of 10 nmol/kg were i.v. administered, and blood samples were collected from the jugular vein in the presence of proteinase inhibitors (Aprotinin, Leupeptin, and EDTA) and the plasma samples were assessed for peptide concentration using a hPTHrP(1–34)‐targeted EIA for M‐PTH/PTHrP and an hPTH(1–34)‐targeted ELISA for PTH(1–34). […]", "note": "Where no end group is shown, it is not given here.", "data": [{"sequence": "AVAEIQLMHQRAKWIQDLRRRFFLHHLIAEIHTAEI [M‐PTH(1‐14)/PTHrP(15‐36), [Ala^1,3,12,Gln^10,Arg^11,Trp^14]‐PTH(1‐14)/PTHrP(15–36)]", "values": [{"measurement": "Time by which plasma concentration declined to the lowest detection level", "result": "≤ 60", "unit": "min"}]}]}
